Tests used:
Assay in all cases: 50% growth inhibitory concentration (IC50) determination assay
Type in all cases: cell-based
Settings in all cases: Iso-Sensitest broth, 0.098 = detection limit
A. baumannii (ATCC17978) = tested on: A. baumannii (ATCC17978)
Protocol: (§1) Stock compounds in DMSO were serially two-fold diluted (range from 50 to 0.097 μM final concentration) in 384 wells microtiter plates and inoculated with 49 μL the bacterial suspension in Iso-Sensitest broth medium to have a final cell concentration of ˜5×10^5 CFU/mL in a final volume/well of 50 μL/well. Microtiter plates were incubated at 35±2° C. Bacterial cell growth was determined with the measurement of optical density at λ=600 nm each 20 minutes over a time course of 16 h. […] GP-6 (Example 4.131 disclosed in WO 2012/125746 A1) was used as the reference compound in Table 6-8. […] The data of IC50 over S. aureus (ATCC29213), K. pneumoniae (ATCC10031), and A. baumannii (ATCC17978) are illustrated in Table 6.

S. aureus (ATCC29213) = tested on: S. aureus (ATCC29213)
Protocol: as §1

[1] = tested on: K. pneumoniae (ATCC10031)
Protocol: as §1

[2] = Acinetobacter baumannii, ATCC17978, A. baumannii ATCC17978

| SMILES | IC50 (A. baumannii (ATCC17978); [2]) [µM] | IC50 (S. aureus (ATCC29213); Staphylococcus aureus) [µM] | IC50 ([1]; Klebsiella pneumoniae) [µM] | IC50 (A. baumannii (ATCC17978); A. baumannii ATCC17978) [µM] | IC50 (S. aureus (ATCC29213)) [µM] | IC50 [1] [µM] |
| --- | --- | --- | --- | --- | --- | --- |
| CNc1cc(F)c(F)c2c1[nH]c1ncc(-c3cnc4c(c3)c(=O)c(C(=O)O)cn4C)c(N3CCCC3)c12 [Example 1.208] | 0.78 | < 0.098 | 0.16 | – | – | – |
| CCNc1cc(F)c(F)c2c1[nH]c1ncc(-c3cnc4c(c3)c(=O)c(C(=O)O)cn4C)c(N3CCC(N(C)C)C3)c12 (stereo not drawn) [Example 1.104] | 0.137 | < 0.098 | < 0.098 | – | – | – |
| CNc1cc(F)cc2c1[nH]c1ncc(-c3cnc4c(c3)c(=O)c(C(=O)O)cn4C)c(N3CCC(C)(CN(C)C)C3)c12 (stereo not drawn) [Example 1.102] | 0.134 | < 0.098 | < 0.098 | – | – | – |
| CNc1cc(F)cc2c1[nH]c1ncc(-c3cnc4c(c3)c(=O)c(C(=O)O)cn4C(C)CN(C)C)c(N3CCOCC3)c12 (stereo not drawn) [Example 1.70] | 0.619 | < 0.098 | < 0.098 | – | – | – |
| CNc1cc(F)c(F)c2c1[nH]c1ncc(-c3cnc4c(c3)c(=O)c(C(=O)O)cn4C3CCNC3)c(N3CCCC3)c12 (stereo not drawn) [Example 1.89] | – | – | – | 0.315 | < 0.098 | < 0.098 |
| CNc1cc(F)c(F)c2c1[nH]c1ncc(-c3cnc4c(c3)c(=O)c(C(=O)O)cn4NC3CCOCC3)c(N(C)C)c12 [Example 1.91] | 0.237 | < 0.098 | 0.165 | – | – | – |
| CNc1cc(F)c(F)c2c1[nH]c1ncc(-c3cnc4c(c3)c(=O)c(C(=O)O)cn4C)c(N3CCC(F)(CN(C)C)C3)c12 (stereo not drawn) [Example 1.108] | 0.088 | < 0.098 | < 0.098 | – | – | – |
| CNc1cc(F)cc2c1[nH]c1ncc(-c3cnc4c(c3)c(=O)c(C(=O)O)cn4C)c(N3CCC(CN(C)C4CC4)C3)c12 (stereo not drawn) [Example 1.99] | 0.771 | < 0.098 | < 0.098 | – | – | – |
| CNc1cc(F)c(F)c2c1[nH]c1ncc(-c3cnc4c(c3)c(=O)c(C(=O)O)cn4C)c(N3CC(CN(C)C)C(F)(F)C3)c12 (stereo not drawn) [Example 1.143] | 0.109 | < 0.098 | < 0.098 | – | – | – |
| CNc1cc(F)cc2c1[nH]c1ncc(-c3cnc4c(c3)c(=O)c(C(=O)O)cn4CC(C)(C)N(C)C)c(N3CCOCC3)c12 [Example 1.69] | 0.438 | < 0.098 | < 0.098 | – | – | – |
| CCn1cc(C(=O)O)c(=O)c2cc(-c3cnc4[nH]c5c(NC)c(F)c(F)cc5c4c3N(C)C)cnc21 [Example 1.20] | 0.209 | < 0.098 | 0.141 | – | – | – |
| CNc1cc(F)cc2c1[nH]c1ncc(-c3cnc4c(c3)c(=O)c(C(=O)O)cn4C)c(N3CC4[C@@H](C3)OCCN4C)c12 (stereo partly drawn) [Example 1.112] | 0.334 | < 0.098 | < 0.098 | – | – | – |
| CNc1cc(F)c(F)c2c1[nH]c1ncc(-c3cnc4c(c3)c(=O)c(C(=O)O)cn4C)c(N(C)CCOC)c12 [Example 1.33] | 0.252 | < 0.098 | < 0.098 | – | – | – |
| CNc1cc(F)c(F)c2c1[nH]c1ncc(-c3cnc4c(c3)c(=O)c(C(=O)O)cn4C3CCN(C)C3)c(N(C)C)c12 (stereo not drawn) [Example 1.130] | 0.132 | < 0.098 | < 0.098 | – | – | – |
| CNc1cc(F)c(F)c2c1[nH]c1ncc(-c3cnc4c(c3)c(=O)c(C(=O)O)cn4C)c(N3CCC(CNC4CC4)C3)c12 (stereo not drawn) [Example 1.137] | 0.151 | < 0.098 | < 0.098 | – | – | – |
| CNc1cc(F)c(F)c2c1[nH]c1ncc(-c3cnc4c(c3)c(=O)c(C(=O)O)cn4[C@@H]3CCNC3)c(N(C)C)c12 [Example 1.155] | 0.328 | 3.8 | < 0.098 | – | – | – |
| CNc1cc(F)c(F)c2c1[nH]c1ncc(-c3cnc4c(c3)c(=O)c(C(=O)O)cn4CC3(O)CC3)c(N(C)C)c12 [Example 1.146] | 0.525 | < 0.098 | 0.411 | – | – | – |
| CNc1cc(F)cc2c1[nH]c1ncc(-c3cnc4c(c3)c(=O)c(C(=O)O)cn4C)c(N3CCC(NC4CC4)C3)c12 (stereo not drawn) [Example 1.114] | 0.103 | < 0.098 | < 0.098 | – | – | – |
| CNc1cc(F)c(F)c2c1[nH]c1ncc(-c3cnc4c(c3)c(=O)c(C(=O)O)cn4C)c(N3C[C@H](C)[C@@H](N(C)C)C3)c12 [Example 1.167] | – | – | – | 0.143 | < 0.098 | < 0.098 |
| CNc1cc(F)c(F)c2c1[nH]c1ncc(-c3cnc4c(c3)c(=O)c(C(=O)O)cn4C)c(N3CCC(OC)CC3)c12 [Example 1.40] | 0.364 | < 0.098 | 0.264 | – | – | – |
| CNc1cc(F)c(F)c2c1[nH]c1ncc(-c3cnc4c(c3)c(=O)c(C(=O)O)cn4C3CCNC3)c(N3CCCC3)c12 (stereo not drawn) [Example 1.65] | 0.378 | < 0.098 | < 0.098 | – | – | – |
| CNc1cc(F)c(F)c2c1[nH]c1ncc(-c3cnc4c(c3)c(=O)c(C(=O)O)cn4CCN3CCN(C)CC3)c(N(C)C)c12 [Example 1.29] | 0.405 | < 0.098 | < 0.098 | – | – | – |
| CNc1cc(F)c(F)c2c1[nH]c1ncc(-c3cnc4c(c3)c(=O)c(C(=O)O)cn4C)c(N3CCO[C@@H](C)C3)c12 [Example 1.36] | 0.147 | < 0.098 | < 0.098 | – | – | – |
| CNc1cc(F)c(F)c2c1[nH]c1ncc(-c3cnc4c(c3)c(=O)c(C(=O)O)cn4CCOC)c(N(C)C)c12 [Example 1.24] | 0.519 | < 0.098 | 0.238 | – | – | – |

The next lines start with the values.

| IC50 (A. baumannii (ATCC17978); [2]) [µM] | IC50 (S. aureus (ATCC29213); Staphylococcus aureus) [µM] | IC50 ([1]; Klebsiella pneumoniae) [µM] | IC50 (A. baumannii (ATCC17978); A. baumannii ATCC17978) [µM] | IC50 (S. aureus (ATCC29213)) [µM] | IC50 [1] [µM] | SMILES |
| --- | --- | --- | --- | --- | --- | --- |
| 0.745 | < 0.098 | 0.275 | – | – | – | CNc1cc(F)c(F)c2c1[nH]c1ncc(-c3cnc4c(c3)c(=O)c(C(=O)O)cn4NCC(F)(F)F)c(N(C)C)c12 [Example 5.03, 6-(4-(dimethylamino)-5,6-difluoro-8-(methylamino)-9H-pyrido[2,3-b]indol-3-yl)-4-oxo-1-((2,2,2-trifluoroethyl)amino)-1,4-dihydro-1,8-naphthyridine-3-carboxylic acid] |
| 0.16 | < 0.098 | < 0.098 | – | – | – | CNc1cc(F)c(F)c2c1[nH]c1ncc(-c3cnc4c(c3)c(=O)c(C(=O)O)cn4NC)c(N3C[C@@H]4OCCN(C)[C@@H]4C3)c12 [Example 3.13B] |
| 0.308 | < 0.098 | < 0.098 | – | – | – | CNc1cc(F)c(F)c2c1[nH]c1ncc(-c3cnc4c(c3)c(=O)c(C(=O)O)cn4NC)c(N3CCC4(CCN4C)C3)c12 (stereo not drawn) [Example 1.238] |
| 0.497 | < 0.098 | < 0.098 | – | – | – | CNc1cc(F)c(F)c2c1[nH]c1ncc(-c3cnc4c(c3)c(=O)c(C(=O)O)cn4C)c(N3CC4[C@H](CC[C@H]4CN(C)C)C3)c12 (stereo partly drawn) [Example 1.218] |
| 0.363 | < 0.098 | < 0.098 | – | – | – | CNc1cc(F)cc2c1[nH]c1ncc(-c3cnc4c(c3)c(=O)c(C(=O)O)cn4C)c(N3C[C@H]4OCCN(C)[C@H]4C3)c12 [Example 3.22A] |
| 0.208 | < 0.098 | < 0.098 | – | – | – | CNc1cc(Cl)cc2c1[nH]c1ncc(-c3cnc4c(c3)c(=O)c(C(=O)O)cn4C)c(N3C[C@H]4CCN(C)[C@H]4C3)c12 [Example 3.15A] |
| 0.437 | 0.197 | < 0.098 | – | – | – | CNc1cc(F)c(F)c2c1[nH]c1ncc(-c3cnc4c(c3)c(=O)c(C(=O)O)cn4C)c(N3CCO[C@H](CN(C)C)C3)c12 [Example 4.02A, (R)-6-(4-(2-((dimethylamino)methyl)morpholino)-5,6-difluoro-8-(methylamino)-9H-pyrido[2,3-b]indol-3-yl)-1-methyl-4-oxo-1,4-dihydro-1,8-naphthyridine-3-carboxylic acid] |
| 0.476 | < 0.098 | 0.14 | – | – | – | CNc1cc(F)c(F)c2c1[nH]c1ncc(-c3cnc4c(c3)c(=O)c(C(=O)O)cn4[C@@H](C)CO)c(N3CCO[C@@H](C)C3)c12 [Example 1.250] |
| 0.207 | 0.11 | < 0.098 | – | – | – | CNc1cc(F)c(F)c2c1[nH]c1ncc(-c3cnc4c(c3)c(=O)c(C(=O)O)cn4C)c(N3CCN(C)CC3)c12 [Example 1.226] |
| 0.408 | 0.207 | < 0.098 | – | – | – | CNc1cc(F)c(F)c2c1[nH]c1ncc(-c3cnc4c(c3)c(=O)c(C(=O)O)cn4C)c(N3CCO[C@@H](CN(C)C)C3)c12 [Example 4.02B, (S)-6-(4-(2-((dimethylamino)methyl)morpholino)-5,6-difluoro-8-(methylamino)-9H-pyrido[2,3-b]indol-3-yl)-1-methyl-4-oxo-1,4-dihydro-1,8-naphthyridine-3-carboxylic acid] |
| 0.371 | < 0.098 | < 0.098 | – | – | – | CNc1cc(F)c(F)c2c1[nH]c1ncc(-c3cnc4c(c3)c(=O)c(C(=O)O)cn4C)c(N3C[C@@H]4[C@@H](C3)OCCN4C)c12 [Example 3.24B] |
| 0.215 | < 0.098 | < 0.098 | – | – | – | CNc1cc(F)c(F)c2c1[nH]c1ncc(-c3cnc4c(c3)c(=O)c(C(=O)O)cn4C)c(N3CC4[C@H](CCN4CCO)C3)c12 (stereo partly drawn) [Example 1.261] |
| 0.257 | < 0.098 | 0.118 | – | – | – | CNc1cc(F)c(F)c2c1[nH]c1ncc(-c3cnc4c(c3)c(=O)c(C(=O)O)cn4C)c(N3CCC4(C[C@@H]4N(C)C)C3)c12 (stereo partly drawn) [Example 6.01, 6-(4-(trans-2-(Dimethylamino)-5-azaspiro[2.4]heptan-5-yl)-5,6-difluoro-8-(methylamino)-9H-pyrido[2,3-b]indol-3-yl)-1-methyl-4-oxo-1,4-dihydro-1,8-naphthyridine-3-carboxylic acid] |
